Consider 19 compounds from patent US20250154138A1, “Small Molecule IL-17A Modulators” (BeiGene, Ltd., priority 2022, published 2025).

Test [1] deals with IL-17-induced GROα secretion from HT-29 cells. Nature of the test: GROα release assay in human colorectal adenocarcinoma epithelial cell (HT-29, ELISA). The format is cell-based. Particulars: Homo sapiens, HT-29, 48 h, 10 ng/mL IL-17A, highest concentration 10 μM, read-out: Cellular assay HT29 cell/CXCL1 IC50. In short, it runs like this: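 HT-29 cells were exposed 48 h at 37°C to IL-17A (final 10 ng/mL) preincubated 15 min with compound (4-fold dilutions, top 10 μM). Secreted GROα was quantified by ELISA against a standard curve, and IC50 obtained by four-parameter fitting.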

Test [2] concerns the target human IL-17A / human IL-17RA (Homo sapiens (Human), UniProt Q16552). As to the kind of experiment: Human IL-17A biochemical assay (HTRF, blocking of IL-17A binding to IL-17RA). Particulars: 0.4 nM IL-17A, 0.3 nM IL-17RA, max compound concentration 10 uM. The method in brief:
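Recombinant human IL-17A (0.4 nM) was pre-incubated with compound (top 10 uM, 2.7-fold, 10 points) for 3 h at room temperature in 20 mM HEPES pH 7.5, 50 mM NaCl, 0.1% BSA, 0.2 mM DTT, 0.005% Tween 20. IL-17RA (0.3 nM) was then added for 1 h, followed by anti-6His Tb and anti-human IgG-XL665 detection for 1 h; IC50 from four-parameter fit.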

human IL-17A / human IL-17RA, sequence (Q16552 24-155): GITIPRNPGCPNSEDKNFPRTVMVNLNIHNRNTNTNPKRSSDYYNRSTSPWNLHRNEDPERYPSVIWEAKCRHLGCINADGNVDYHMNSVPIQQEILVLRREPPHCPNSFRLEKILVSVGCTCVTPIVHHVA

For the compound `CNC(=O)C1(N2C[C@@H](C(C)C)NC2=O)Cc2ccc(NC(=O)[C@@H](NC(=O)c3ccnn3CCO)C3CCCCC3)cc2C1` (stereo partly drawn) [Example 126, N-((1S)-1-cyclohexyl-2-((2-((R)-4-isopropyl-2-oxoimidazolidin-1-yl)-2-(methylcarbamoyl)-2,3-dihydro-1H-inden-5-yl)amino)-2-oxoethyl)-1-(2-hydroxyethyl)-1H-pyrazole-5-carboxamide], the IC50 in test [1] was determined as 3960 nM; in test [2], 72 nM.
For `CNC(=O)C1(N2C[C@@H](C(C)C)NC2=O)Cc2ccc(NC(=O)C(NC(=O)c3ccnn3C)C3CCc4ccccc4C3)cc2C1` (stereo partly drawn) [Example 128, N-(2-((2-((R)-4-isopropyl-2-oxoimidazolidin-1-yl)-2-(methylcarbamoyl)-2,3-dihydro-1H-inden-5-yl)amino)-2-oxo-1-(1,2,3,4-tetrahydronaphthalen-2-yl)ethyl)-1-methyl-1H-pyrazole-5-carboxamide], in that order: 277 nM and 89.8 nM.
For `CNC(=O)C1(N2C[C@@H](C(C)C)NC2=O)Cc2ccc(NC(=O)[C@@H](NC(=O)c3ccnn3C3CC3)C3CCCCC3)cc2C1` (stereo partly drawn) [Example 129, N-((1S)-1-cyclohexyl-2-((2-((R)-4-isopropyl-2-oxoimidazolidin-1-yl)-2-(methylcarbamoyl)-2,3-dihydro-1H-inden-5-yl)amino)-2-oxoethyl)-1-cyclopropyl-1H-pyrazole-5-carboxamide], the IC50 was 119 nM in test [1] and 44 nM in test [2].
As for `CNC(=O)C1(N2CC3(CC3)CNC2=O)Cc2ccc(NC(=O)[C@@H](NC(=O)c3cc(C#N)cn3C)C3CCCCC3)cc2C1` (stereo partly drawn) [Example 130, 4-cyano-N-((1S)-1-cyclohexyl-2-((2-(methylcarbamoyl)-2-(6-oxo-5,7-diazaspiro[2.5]octan-5-yl)-2,3-dihydro-1H-inden-5-yl)amino)-2-oxoethyl)-1-methyl-1H-pyrrole-2-carboxamide], the IC50 turned out to be 59.6 nM in test [1] and 19 nM in test [2].
The like results for `CNC(=O)C1(N2CC3(CC3)CNC2=O)Cc2ccc(NC(=O)[C@@H](NC(=O)c3ccc(C#N)n3C)C3CCCCC3)cc2C1` (stereo partly drawn) [Example 131, 5-cyano-N-((1S)-1-cyclohexyl-2-((2-(methylcarbamoyl)-2-(6-oxo-5,7-diazaspiro[2.5]octan-5-yl)-2,3-dihydro-1H-inden-5-yl)amino)-2-oxoethyl)-1-methyl-1H-pyrrole-2-carboxamide] were, in that order, 14.9 nM and 5.5 nM.
For `CNC(=O)C1(N2CC3(CC3)CNC2=O)Cc2ccc(NC(=O)[C@@H](NC(=O)c3ccnn3C3CC(O)C3)C3CCCCC3)cc2C1` (stereo partly drawn) [Example 132, N-((1S)-1-cyclohexyl-2-((2-(methylcarbamoyl)-2-(6-oxo-5,7-diazaspiro[2.5]octan-5-yl)-2,3-dihydro-1H-inden-5-yl)amino)-2-oxoethyl)-1-(3-hydroxycyclobutyl)-1H-pyrazole-5-carboxamide], in that order: 178 nM and 66 nM.
As for `CC(C)[C@@H]1CN(C2(C(=O)N(C)C)Cc3ccc(NC(=O)[C@@H](NC(=O)c4ccnn4C)C4CCCCC4)cc3C2)C(=O)N1` (stereo partly drawn) [Example 135, N-((1S)-1-cyclohexyl-2-((2-(dimethylcarbamoyl)-2-((R)-4-isopropyl-2-oxoimidazolidin-1-yl)-2,3-dihydro-1H-inden-5-yl)amino)-2-oxoethyl)-1-methyl-1H-pyrazole-5-carboxamide], the values for the IC50 in test [1] and in test [2] were 245 nM and 186 nM, respectively.
For `CC(C)[C@@H]1CN(C2(C(=O)N3CCC(O)C3)Cc3ccc(NC(=O)[C@@H](NC(=O)c4ccnn4C)C4CCCCC4)cc3C2)C(=O)N1` (stereo partly drawn) [Example 136, N-((1S)-1-cyclohexyl-2-((2-(3-hydroxypyrrolidine-1-carbonyl)-2-((R)-4-isopropyl-2-oxoimidazolidin-1-yl)-2,3-dihydro-1H-inden-5-yl)amino)-2-oxoethyl)-1-methyl-1H-pyrazole-5-carboxamide], in that order: 279 nM and 108 nM.
The like results for `CNC(=O)C1(N2CC3(CC3)CNC2=O)Cc2cc3nc([C@@H](NC(=O)c4ccnn4C)C4CCCCC4)[nH]c3cc2C1` [Example 137, 2-((S)-cyclohexyl(1-methyl-1H-pyrazole-5-carboxamido)methyl)-N-methyl-6-(6-oxo-5,7-diazaspiro[2.5]octan-5-yl)-1,5,6,7-tetrahydroindeno[5,6-d]imidazole-6-carboxamide] were, in that order, 1490 nM and 413 nM.
The like results for `CNC(=O)C1(N2CC3(CC3)CNC2=O)Cc2ccc(NC(=O)[C@@H](NC(=O)c3nonc3C)C3CCC(F)(F)CC3)cc2C1` (stereo partly drawn) [Example 138, N-((1S)-1-(4,4-difluorocyclohexyl)-2-((2-(methylcarbamoyl)-2-(6-oxo-5,7-diazaspiro[2.5]octan-5-yl)-2,3-dihydro-1H-inden-5-yl)amino)-2-oxoethyl)-4-methyl-1,2,5-oxadiazole-3-carboxamide] were, in that order, 101 nM and 53.1 nM.
With `CCC1CCC(C(NC(=O)c2ccnn2C)C(=O)Nc2ccc3c(c2)CC(C(=O)NC)(N2CC4(CC4)CNC2=O)C3)CC1` (centres unmarked) [Example 139, N-(1-(4-ethylcyclohexyl)-2-((2-(methylcarbamoyl)-2-(6-oxo-5,7-diazaspiro[2.5]octan-5-yl)-2,3-dihydro-1H-inden-5-yl)amino)-2-oxoethyl)-1-methyl-1H-pyrazole-5-carboxamide], the figures for the IC50 in test [1] and in test [2] were 21.9 nM and 10 nM, respectively.
For `CNC(=O)C1(N2CC3(CC3)CNC2=O)Cc2ccc(NC(=O)[C@@H](NC(=O)c3ccnn3C3CC3)C3CCCCC3)cc2C1` (stereo partly drawn) [Example 141, N-((1S)-1-cyclohexyl-2-((2-(methylcarbamoyl)-2-(6-oxo-5,7-diazaspiro[2.5]octan-5-yl)-2,3-dihydro-1H-inden-5-yl)amino)-2-oxoethyl)-1-cyclopropyl-1H-pyrazole-5-carboxamide], in that order: 41.1 nM and 16 nM.
The like results for `CNC(=O)C1(N2CC3(CC3)CNC2=O)Cc2ccc(NC(=O)[C@@H](NC(=O)c3ccnn3C)C3CCC(F)(F)CC3)cc2C1` (stereo partly drawn) [Example 142, N-((1S)-1-(4,4-difluorocyclohexyl)-2-((2-(methylcarbamoyl)-2-(6-oxo-5,7-diazaspiro[2.5]octan-5-yl)-2,3-dihydro-1H-inden-5-yl)amino)-2-oxoethyl)-1-methyl-1H-pyrazole-5-carboxamide] were, in that order, 197 nM and 107 nM.
Take `CNC(=O)C1(N2CC3(CC3)CNC2=O)Cc2ccc(NC(=O)C(NC(=O)c3ccnn3C)C3CCC(C(C)(F)F)CC3)cc2C1` (centres unmarked) [Example 143, N-(1-(4-(1,1-difluoroethyl)cyclohexyl)-2-((2-(methylcarbamoyl)-2-(6-oxo-5,7-diazaspiro[2.5]octan-5-yl)-2,3-dihydro-1H-inden-5-yl)amino)-2-oxoethyl)-1-methyl-1H-pyrazole-5-carboxamide]: the IC50 is 772 nM in test [1] and 163 nM in test [2].
For `CNC(=O)C1(N2C(=O)NC3CCC2C3)Cc2ccc(NC(=O)[C@@H](NC(=O)c3ccnn3C)C3CCCCC3)cc2C1` (stereo partly drawn) [Example 144, N-((1S)-1-cyclohexyl-2-((2-(methylcarbamoyl)-2-(3-oxo-2,4-diazabicyclo[3.2.1]octan-2-yl)-2,3-dihydro-1H-inden-5-yl)amino)-2-oxoethyl)-1-methyl-1H-pyrazole-5-carboxamide], in that order: 182 nM and 48.6 nM.
Turning to `CNC(=O)C1(N2CC3(CC3)CNC2=O)CCc2cc(NC(=O)[C@@H](NC(=O)c3ccnn3C)C3CCCCC3)sc2C1` (stereo partly drawn) [Example 145, N-((1S)-1-cyclohexyl-2-((6-(methylcarbamoyl)-6-(6-oxo-5,7-diazaspiro[2.5]octan-5-yl)-4,5,6,7-tetrahydrobenzo[b]thiophen-2-yl)amino)-2-oxoethyl)-1-methyl-1H-pyrazole-5-carboxamide], the IC50 in test [1] was 454 nM; in test [2], 139 nM.
For `Cn1nccc1C(=O)N[C@H](C(=O)Nc1ccc2c(c1)CC(N1C[C@@H](C(F)(F)F)NC1=O)C2)C1CCCCC1` (stereo partly drawn) [Example 146, N-((1S)-1-cyclohexyl-2-oxo-2-((2-((S)-2-oxo-4-(trifluoromethyl)imidazolidin-1-yl)-2,3-dihydro-1H-inden-5-yl)amino)ethyl)-1-methyl-1H-pyrazole-5-carboxamide], in that order: 768 nM and 204 nM.
For `CNC(=O)C1(N2CC3(CCCC3)CNC2=O)Cc2ccc(NC(=O)[C@@H](NC(=O)c3ccnn3C)C3CCCCC3)cc2C1` (stereo partly drawn) [Example 147, N-((1S)-1-cyclohexyl-2-((2-(methylcarbamoyl)-2-(8-oxo-7,9-diazaspiro[4.5]decan-7-yl)-2,3-dihydro-1H-inden-5-yl)amino)-2-oxoethyl)-1-methyl-1H-pyrazole-5-carboxamide], in that order: 61.8 nM and 22.4 nM.
As to `COC(=O)C1(N2CC3(CC3)CNC2=O)Cc2ccc(NC(=O)C(NC(=O)c3ccnn3C)C3CCC(C(C)C)CC3)cc2C1` (centres unmarked) [Example 148, methyl 5-(2-(4-isopropylcyclohexyl)-2-(1-methyl-1H-pyrazole-5-carboxamido)acetamido)-2-(6-oxo-5,7-diazaspiro[2.5]octan-5-yl)-2,3-dihydro-1H-indene-2-carboxylate], the IC50 in test [1] turned out to be 164 nM; in test [2] it was 62 nM.
